Source: patent publication US10787472B2, “Prodrugs of pyridone amides useful as modulators of sodium channels” (VERTEX PHARMACEUTICALS INCORPORATED, priority 2013, dated 2020)

Experiments:
Aqueous solubility study = type: physicochemical; details: ambient conditions, 24 hours
Procedure: The aqueous solubility of compound 9 and 9a were determined according to the following procedure. Solubility data was determined at ambient conditions by equilibrating the compound with water on a shaking bed for 24 hours, followed by centrifugation and separation of the saturated solutions. The pH value of each media was measured before centrifugation, and the saturated solutions were assayed by HPLC.

[1] = Rat oral pharmacokinetic study; type: in vivo, Sprague Dawley rats; details: for Cmax: male rat, analyte 9a in plasma, 5% TPGS/5% PVP-K30/50 mM Citrate pH5, mean ± SD, N=3
Procedure: (§1) Before extraction, plasma samples were diluted using blank plasma at an appropriate dilution factor, as necessary, depending on the dose level. […] After centrifugation, the supernatant extract (10 μL) was injected onto the LC/MS/MS system. The HPLC system included a Phenomenex Synergy Kinetix C8 column, 2.6 micron, 2.0 mm diameter×75 mm long eluted with a gradient mobile phase consisting of 0.1% formic acid in water or in acetonitrile.
(§2) The analytes were detected by MS/MS with Electrospray Ionization (ESI) in the mode of multiple reaction monitoring (MRM). […] The intra-day and inter-day assay accuracy was within 20% of the nominal values. The intra- and inter-day assay variability was ≤20%.
(§3) Key pharmacokinetic parameters such as AUCall, AUCextra, Cmax, tmax, Cl, Vss and t1/2 were determined.
(§4) Descriptive statistical data of pharmacokinetic parameters were calculated, including the mean, standard deviation (SD), using Watson LIMS version 7.4 SP3 or Microsoft Excel 2000.
Groups of male and female Sprague Dawley rats (n=3 per dose group) were administered single nominal oral doses of 10, 100, 400, 640, 1000 mg/kg (for males) and 30, 100, 300, 640, 1000 mg/kg (for females) of compound 9 by gavage. Compound 9 was formulated in either 30% PEG400 and 10% TPGS in water or 5% TPGS, 5% PVP-K30 in 50 mM Citrate, pH 5. Animals had free access to food and water before and after dosing. Blood samples (approximately 0.25 mL each) were collected via a carotid artery catheter prior to dosing and at 0.25, 0.5, 1, 2, 4, 8, 12, 24, 48 and 72 hours post dose. Each blood sample was collected into a tube that was kept on wet ice and contained potassium EDTA as the anticoagulant. Plasma was separated and stored at approximately −70° C. until analysis.

[2] = Chemical and physical stability of crystalline Form B (XRPD, HPLC impurity profile, appearance); type: physicochemical
Description: Chemically and physically stable means no changes were observed on the X-ray powder diffraction and HPLC impurity profiles (e.g., less than 0.2% variance) and there were no observed changes in physical appearance of the samples.

[3] = Rat IV pharmacokinetic study; type: in vivo, Sprague Dawley rats; details: male rat, after IV bolus 1 mg/kg compound 9; LLOQ 2.5 ng/mL
Procedure: as §1, §2, §3, §4
Male Sprague Dawley rats (n=3) were administered a single nominal IV bolus dose of 1 mg/kg of compound 9 via a jugular vein cannula. […] Animals had free access to food and water before and after dosing. Blood samples (approximately 0.25 mL each) were collected via a carotid artery catheter prior to dosing and at 5 min, 10 min, 0.25, 0.5, 1, 2, 4, 8, 12, 24 hours post dose. […]

[4] = Monkey oral pharmacokinetic study; type: in vivo, cynomolgus monkeys
Procedure: as §1, §2, §3, §4
Male or female cynomolgus monkeys (n=3 per dose group) were administered single nominal PO doses of 10, 40, 100, 300, 500, 750 and 1000 mg/kg of compound 9 by gavage. Compound 9 was formulated in 30% PEG400 and 10% TPGS in water or 5% TPGS, 5% PVP-K30 in 50 mM Citrate, pH 5. Animals were fasted overnight prior to dosing, and were fed two hours post dose. Water was available before and after dosing. […]

Q: Which Solubility (Aqueous solubility study; pH 1.2, crystalline) does the source give for `Cc1cc(F)ccc1Oc1cc(C(F)(F)F)ccc1C(=O)Nc1cc[nH]c(=O)c1` [Compound 9a, 2-(4-fluoro-2-methylphenoxy)-N-(2-oxo-1,2-dihydropyridin-4-yl)-4-(trifluoromethyl)benzamide] here?
A: Its Solubility is <1 µg/mL.

Q: What about the Solubility (Aqueous solubility study; water, pH 6.0, crystalline) of the same compound?
A: Its Solubility is <1 µg/mL.

Q: What about the Cmax ([1]; Sprague-Dawley, compound 9 PO 100 mg/kg) of the same compound?
A: Its Cmax is 1.67 ± 0.0019 µg/mL.

Q: And the Cmax ([1]; compound 9 PO 1000 mg/kg)?
A: Its Cmax is 4.54 ± 0.91 µg/mL.

Q: For `Cc1cc(F)ccc1Oc1cc(C(F)(F)F)ccc1C(=O)Nc1ccn(COP(=O)(O)O)c(=O)c1` [crystalline Form B, (4-(2-(4-fluoro-2-methylphenoxy)-4-(trifluoromethyl)benzamido)-2-oxopyridin-1(2H)-yl)methyl dihydrogen phosphate], which “chemical and physical stability” value ([2]; 5° C./dry, 40° C./dry, 25° C. with RH up to 60%, 40° C. with RH up to 75%) is on record?
A: The value was “chemically and physically stable for at least one month”.

Q: And the “chemical and physical stability” value ([2]; open dish 40° C., 40° C./RH up to 75%, 25° C./RH up to 60%, closed dish 5° C. with desiccator)?
A: The value was “chemically and physically stable for at least three months”.

Q: For `Cc1cc(F)ccc1Oc1cc(C(F)(F)F)ccc1C(=O)Nc1ccn(COP(=O)(O)O)c(=O)c1` [Compound 9, (4-(2-(4-fluoro-2-methylphenoxy)-4-(trifluoromethyl)benzamido)-2-oxopyridin-1(2H)-yl)methyl dihydrogen phosphate], which “plasma concentrations of compound 9” value [3] is on record?
A: The value was “below LLOQ for the majority of the samples”.

Q: And the “plasma concentrations of compound 9” value ([4]; monkey, after PO compound 9 10-1000 mg/kg, LLOQ 10.0 to 25.0 ng/mL)?
A: Its value is “below LLOQ for the majority of the samples”.

Q: What about the “in vivo conversion of prodrug to parent compound” value ([4]; monkeys) of the same compound?
A: Its value is “converted in vivo into compound 9a”.

Q: And the “plasma concentrations of compound 9” value ([1]; rat, after PO compound 9 10-1000 mg/kg, LLOQ 2.5 to 25 ng/mL)?
A: Its value is “below LLOQ for the majority of the samples”.

Q: What about the “in vivo conversion of prodrug to parent compound” value ([1]; rats) of the same compound?
A: The value was “converted in vivo into compound 9a”.
